Experimental findings from US4868195A, “Novel enolamides, pharmaceutical compositions and methods of use thereof for activity as modulators of the arachidonic acid cascade” (Warner-Lambert Company, priority 1988, dated 1989) are described below.

Each structure is given as a SMILES string.

In experiment [1] the target is T1, leukotriene receptor (guinea pig lung membranes) (Cavia porcellus, UniProt Q2NNR5).
T1 construct: 20 mg original tissue wet weight of guinea pig lung; tissue Kuiper Rabbit Farm, Gary, IN (animals); host or cells: guinea pig lung, crude membranes
T1 sequence (Q2NNR5 1-340): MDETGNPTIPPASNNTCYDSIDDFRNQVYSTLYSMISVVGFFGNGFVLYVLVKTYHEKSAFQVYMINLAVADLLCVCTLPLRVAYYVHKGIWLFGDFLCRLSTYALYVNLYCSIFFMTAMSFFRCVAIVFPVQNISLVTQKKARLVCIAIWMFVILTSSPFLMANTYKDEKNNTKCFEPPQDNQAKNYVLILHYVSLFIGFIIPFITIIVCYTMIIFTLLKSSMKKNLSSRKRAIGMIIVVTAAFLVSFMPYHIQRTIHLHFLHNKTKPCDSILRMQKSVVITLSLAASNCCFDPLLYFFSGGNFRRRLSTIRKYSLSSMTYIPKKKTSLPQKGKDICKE
The experiment can be described thus: Binding of ^3 H-Leukotriene D4 to Guinea Pig Lung Membranes (RBL). As to conditions: 0.2 nM ^3 H-LTD4, 60 min, 25° C.; read-out: Concentration (M) for 50.0 % Inhibition, IC (RBL). How it is done: Additionally, the activity, of the compounds having the Formula I of the present invention is determined by the well known leukotriene receptor binding assay that is described by R. F. Bruns, W. J. Thomsen and T. A. Pugsley in Life Sciences, 33, 645 (1983) or the Herxheimer in vivo antiallergy test described in H. Herxheimer, J. Physiol. (London), Vol. 177, p. 251 (1952).
Binding of ^3 H-Leukotriene D4 to Guinea Pig Lung Membranes (RBL)
[14,15-^3 H]leukotriene D4 (^3 H-LTD4) (25 Ci/mmol and 40 Ci/mmol) is purchased from New England Nuclear. Unlabeled LTC4 is a gift of Ono Pharmaceuticals (Japan). LTC4, LTD4, and LTE4 are purchased as methyl esters from Paesel GmbH (Frankfurt, W. Germany). Concentrations of the Paesel leukotrienes are calculated from their absorbance at 280 nm. Leukotriene esters are saponified overnight under N2 in 3.3% potassium carbonate at room temperature. Tritiated leukotrienes are stored as received from New England Nuclear at -20° C. Ono LTC4 (5 μg/ml) is stored at -60° C. in phosphate buffer pH 6.8. Saponified Paesel leukotrienes are stored at -60° C. in 3.3% potassium carbonate (pH 9.0-9.5). Aliquots of leukotrienes are taken from stock solutions immediately after thawing, after which the stock solutions are immediately refrozen. 2-Amino-2-(hydroxymethyl)-1,3-propanediol (Tris) is Sigma pH 7.7 pre-set crystals, and dimethylsulfoxide is Aldrich Gold Label.
Preparation of crude lung membranes
Two pairs of lungs (1.3 g) from freshly sacrificed 300 g male guinea pigs (older animals gave substantially lower binding) from Kuiper Rabbit Farm, Gary, IN are disrupted with a Polytron PT 10 (setting 4) for 30 seconds in 20 ml ice-cold 50 mM Tris adjusted with HCl to pH 7.7 at 25° C. (Tris buffer), filtered through a single layer of gauze to remove connective tissue, and centrifuged at 50,000 xg for ten min. The pellet is resuspended by homogenization with a Polytron in 20 ml Tris buffer, centrifuged at 50,000 xg for ten min., resuspended, incubated at 37° C. for 30 minutes, and centrifuged again. The final pellet is resuspended in Tris buffer and either used fresh or stored at -70° C.
All incubations are in triplicate for 60 minutes at 25° C. in 12×75 mm polystyrene tubes containing 1 ml Tris buffer with 20 mg original tissue wet weight of guinea pig lung nmembranes, 0.2 nM ^3 H-LTD4 (6,000-11,000 cpm), 10 mM MgCl2, and 1% dimethylsulfoxide Leukotrienes are diluted in Tris buffer. All other test compounds dissolved at 10 mM in dimethylsulfoxide on the same day as the experiment, and diluted in dimethylsulfoxide to 100× the final incubation concentration. Control incubations receive an equal volume (10 μl) of dimethylsulfoxide; the resulting concentration of dimethylsulfoxide had no effect on binding. ^3 H-LTD4 is diluted to 2 nM in Tris buffer. The membrane suspension (20 mg/0.89 ml) contains sufficient MgCl2 to give 10 mM final concentration in the incubation. […] All additions are performed at 0° C. Immediately after the last addition, the incubation is initiated by agitating the rack of tubes on a vortex mixer and warming to 25° C. in a water bath. Tubes are vortexed at least once more during the incubation to ensure that the membranes remained suspended. Incubations are terminated after 60 minutes by filtering under reduced pressure through 25 mm Whatman GF/B filters followed by rapid washing three times with 4 ml of ice-cold Tris buffer. Filters are added to scintillation vials with 8 ml Formula 947 (New England Nuclear), left overnight, shaken, and the radioactivity counted in a scintillation counter (efficiency 40%). Nonspecific binding, defined as binding of ^3 H-LTD4 in the presence of 100 nM LTC4, is 300-500 cpm for all lots of ^3 H-LTD4. Binding to the filters in the absence of tissue is about 100 cpm, and is not affected by unlabeled LTC4. Specific binding, defined as total binding minus nonspecific binding, varied considerably from lot to lot of ^3 H-LTD4. […]

The target in experiment [2] is Human Leukocyte Lipoxygenase. The experiment in a line: Human Leukocyte Lipoxygenase Assay (LDA-H). The class given is biochemical. The conditions noted are these: for IC50: acetone-pentane powder enzyme, 234 nm, 24° C., 5 min preincubation, read-out: Concentration (M) for 50.0 % Inhibition, IC (LDAH). How it is done: Human Leukocyte Lipoxygenase Assay (LDA-H)
Whole blood is collected from normal volunteers and spun in a refrigerated centrifuge for four minutes at 1°-6° C. at 3800 g. The buffy coat is manually separated and washed twice with chilled 0.83% NH4 Cl and centrifuged at 1000 RPM for ten minutes at 4° C. The white cell is suspended in culture media-EMEM supplemented with 6% Agamma human serum, tricine buffer, and neomycin and recentrifuged at 1000 g to yield a pellet containing the leukocytes used for the preparation of the acetone pentane powder.
The acetone-pentane powder is prepared utilizing a modification of the procedure reported for human platelet lipoxygenase. See Siegel, et al, Arachidonate Metabolism via Lipoxygenase and 12-L-hydroperoxy-5 Eicosatetraenoic Acid Peroxidase Sensitive to Antiinflammatory Drugs, Proc. Natl. Acad. Sci., USA 77: 308, 1980 and D. P. Wallach and V. R. Brown, A Novel Preparation of Human Platlet Lipoxygenase, Biochem. Biophys. Acta. 663: 361, 1981. Buffy coat prepared above is resuspended in 5-7 volumes of cold 0.1M Tris buffer, pH 7.4 containing 0.154M NaCl. The suspension is centrifuged at 13,300 g for ten minutes at 4° C. The resultant pellet is retained, resuspended in five volumes of cold acetone, recentrifuged at 13,300 g and resuspended in five volumes of cold pentane. The pentane suspension is centrifuged for ten minutes at 13,300 g to give a pellet which is dried in the cold under vacuum with periodic pulverization. The dry powder is stable for several weeks when stored at -80° C.
Enzyme stock solution is prepared in the following manner. About 15 mg of the acetone-pentane powder is suspended in 4 ml of cold tris buffer (0.1M, pH 7.4), allowed to stand for five minutes, and homogenized thoroughly. The homogenate is sonicated three times for 15 seconds each time, diluted to 7 ml with cold tris buffer (0.1M, pH 7.4), and centrifuged at 4° C. for 60 minutes at 13,300 g. the supernatent is retained and diluted to a total of 10 ml with cold tris buffer (0.1M, pH 7.4) to give the stock enzyme solution. Additional dilutions of 2-50 fold are done as necessary to locate optimal enzyme reaction rate in the assay described below.
Substrate solution is prepared at 100 μM or 1.0 μM concentrations of arachidonic acid or linoleic acid in 0.1M tris buffer, pH 9.0 containing 20% ethanol.
The enzyme reaction is followed spectrophotometrically by the appearance of a conjugated diene product at 234 nm. The reaction is monitored at 24° C. using a Gilford Model 2600 spectrophotometer. […] The effects of inhibitors on the reaction are compared with control reactions run under indentical conditions. Routinely, each compounds of the present invention is incubated with the enzyme for five minutes prior to addition of substrate to initiate the reaction. Inhibition expressed as IC50 as molar concentration of the compound required to reduce reaction rate to 50% control.

In the case of `O=C(Nc1ccc(CCc2ccc(O)c(O)c2)cc1)C(=O)c1sc2ccc(Cl)cc2c1O` [Example 138, Benzo[b]thiophene-2-acetamide, 5-chloro-N-[4-[2-(3,4-dihydroxyphenyl)ethyl]phenyl]-3-hydroxy-α-oxo], the IC50 in experiment [1] was 0.000113 M; in experiment [2], 3.3e-05 M. In the case of `COc1ccccc1CCc1ccc(NC(=O)C2=C(O)c3ccccc3S(=O)(=O)C2)cc1` [Example 37, 4-Hydroxy-N-8 4-[2-(2-methoxyphenyl)ethyl]phenyl-2H-1-benzothiopyran-3-carboxamide, 1,1-dioxide], the IC50 in experiment [1] stood at 1.9e-05 M. The “% Inhibition (LDAH)” value in experiment [2] (Concentration 8.00 E -5 M) is given as 0.0%. For the molecule `CC(=O)Nc1ccc(CCc2ccc(NC(=O)C3CS(=O)(=O)c4ccccc4C3=O)cc2)cc1` (stereo not shown) [Example 49], the IC50 in experiment [1] turned out to be 0.000149 M; in experiment [2], 3.5e-05 M.

As for `Cc1ccccc1CCc1ccc(NC(=O)C2=C(O)c3ccccc3S(=O)(=O)C2)cc1` [Example 43], in experiment [1], the IC50 was 2.06e-05 M. Moreover, the “% Inhibition (LDAH)” value in experiment [2] (Concentration 8.00 E -5 M) is given as 0.0%. Take `CCOC(=O)c1ccc(CCc2ccc(NC(=O)C3CS(=O)(=O)c4ccccc4C3=O)cc2)cc1` (stereo not shown) [Example 47, 4-[2-[4-[[(3,4-Dihydro-4-oxo-2H-1-benzothiopyran-3-yl)carbonyl]amino]pheyl]ethyl]benzoic acid, ethyl ester, 1,1-dioxide]: in experiment [1], the IC50 worked out at 1.11e-05 M. Moreover, the “% Inhibition (LDAH)” value in experiment [2] (Concentration 8.00 E -5 M) was determined as 0.0%. On the same counts, the results for `Cc1ccc(CCc2ccc(NC(=O)C3CS(=O)(=O)c4ccccc4C3=O)cc2)cc1` (stereo not shown) [Example 45] are 9.44e-06 M and 0.0%.

Regarding `O=C(Nc1ccc(CCc2ccc(C(F)(F)F)cc2)cc1)C1CS(=O)(=O)c2ccccc2C1=O` (stereo not shown) [Example 44], in experiment [1], the IC50 came to 3.02e-06 M. In addition, the “% Inhibition (LDAH)” value in experiment [2] (Concentration 2.50 E -5 M) is 0.0%. With `O=C(Nc1ccc(CCc2cc(Cl)cc(Cl)c2)cc1)C1=C(O)c2ccccc2S(=O)(=O)C1` [Example 71, 2H-1-Benzothiopyran-3-carboxamide, N-[4-[2-(3,5-dichlorophenyl)ethyl]phenyl]-4-hydroxy-, 1,1-dioxide], the IC50 in experiment [1] is 7.46e-06 M; in experiment [2], 0.0002 M. On to `COc1ccc(CCc2ccc(NC(=O)C(=O)C3Oc4cc5ccccc5cc4C3=O)cc2)cc1OC` (stereo not drawn) [Example 117, Naptho[2,3-b]furan-2-acetamide, N-[4-[2-(3,4-dimethoxyphenyl)ethyl]phenyl]-2,3-dihydro-α,3-dioxo], for which, in experiment [2] (Concentration 2.50 E -5 M), the “% Inhibition (LDAH)” value came out at 0.0%. The same measure, in the same setting: the result for `COc1ccc(CCc2ccc(NC(=O)C(=O)c3[nH]c4cc(C)c(C)cc4c3O)cc2)cc1OC` [Example 175, 1H-Indole-2-acetamide, N-[4-[2-(3,4-dimethoxyphenyl)ethyl]phenyl]-3-hydroxy-5,6-dimethyl-α-oxo] reads 0.0%. For `COc1cccc2c(O)c(C(=O)C(=O)Nc3ccc(CCc4ccc(O)c(O)c4)cc3)oc12` [Example 123, 2-Benzofuranacetamide, N-[4-[2-(3,4-dihydroxyphenyl)ethyl]phenyl]-3-hydroxy-7-methoxy-α-oxo], in experiment [2], the IC50 was 2.5e-05 M.

Turning to `CCCCCCCCCCc1ccc(NC(=O)C(=O)c2oc3cc(OC)c(OC)cc3c2O)cc1` [Example 119, 2-Benzofuranacetamide, N-[4-decylphenyl]-3-hydroxy-5,6-dimethoxy-α-oxo], the “% Inhibition (LDAH)” value in experiment [2] (Concentration 7.90 E -9 M) is 50.0%.

For the molecule `O=C(Nc1ccc(CCc2ccc(O)c(O)c2)cc1)C1Oc2c(n(-c3ccccc3)c3ccccc23)C1=O` (stereo not shown) [Example 166, 2H-Furo[3,2-b]indole-2-carboxamide, N-[4-[2-(3,4-dihydroxyphenyl)ethyl]phenyl]-3,4-dihydro-3-oxo-4-phenyl], the IC50 in experiment [2] amounted to 2.7e-05 M. With `COc1ccc(CCc2ccc(NC(=O)C3CS(=O)(=O)c4ccccc4C3=O)cc2)cc1NC(C)=O` (stereo not shown) [Example 50, N-[4-[2-(3-Acetylamino-4-methoxy)ethyl]phenyl]-3,4-dihydro-4-oxo-2H-1-benzothiopyran-3-carboxamide, 1,1-dioxide], the “% Inhibition (LDAH)” value in experiment [2] (Concentration 8.00 E -5 M) stood at 0.0%. With `CCCCCCCCCCc1ccc(NC(=O)C(=O)c2sc3ccc(Cl)cc3c2O)cc1` [Example 135, Benzo[b]thiophene-2-acetamide, 5-chloro-N-(4-decylphenyl)-3-hydroxy-α-oxo], the IC50 in experiment [2] turned out to be 2.5e-05 M. For `O=C(Nc1ccc(Cc2ccc(O)c(O)c2)cc1)C1CS(=O)(=O)c2ccccc2C1=O` (stereo not shown) [Example 14, N-[4-[(3,4-Dihydroxyphenyl)methyl]phenyl]-3,4-dihydro-4-oxo-2H-1-benzothiopyran-3-carboxamide, 1,1-dioxide], the “% Inhibition (LDAH)” value in experiment [2] (Concentration 2.50 E -5 M) is given as 0.0%. Take `COc1ccc(CCc2ccc(NC(=O)C(=O)C3=C(O)c4ccccc4OC3)cc2)cc1OC` [Example 152]: in experiment [2], the IC50 was 5.7e-07 M.
